Measurements: patent US20220249415A1, “COMPOSITION OF AZELAIC ACID HAVING ADIPOSE TRIGLYCERIDE HYDROLYSIS EFFECT” (Korea University Research and Business Foundation, priority 2018, published 2022)
Entries after “also recorded” stand apart in the source; their conditions may differ.

Key:
3T3-L1 adipocytes [1] = assay: Intracellular cholesterol concentration (Amplex Red kit) in 3T3-L1 adipocytes; format: cell-based, mouse; conditions: azelaic acid 25 or 50 μM
Method: (§1) In order to confirm whether or not azelaic acid induces triglyceride hydrolysis in adipocytes by activating a cAMP-PKA-HSL signaling pathway, the adipocytes were directly treated with azelaic acid, and concentrations of intracellular lipids were measured. […] Then, a concentration of triglycerides was measured using a TG assay kit (BioVision, California, U.S.) and a concentration of cholesterol was measured using an Amplex Red cholesterol assay kit (Invitrogen, California, U.S.).

OR2K2 [2] = biological target: T1, OR2K2 (Homo sapiens, UniProt Q8NGT1, D270A); assay: Luciferase assay of OR2K2 mutants transfected into Hana3A cells; format: cell-based; conditions: OR2K2 D270A mutant in Hana3A cells
T1 construct: expressed in transfected cells; host or cells: Hana3A
T1 sequence (Q8NGT1 1-316 D270A): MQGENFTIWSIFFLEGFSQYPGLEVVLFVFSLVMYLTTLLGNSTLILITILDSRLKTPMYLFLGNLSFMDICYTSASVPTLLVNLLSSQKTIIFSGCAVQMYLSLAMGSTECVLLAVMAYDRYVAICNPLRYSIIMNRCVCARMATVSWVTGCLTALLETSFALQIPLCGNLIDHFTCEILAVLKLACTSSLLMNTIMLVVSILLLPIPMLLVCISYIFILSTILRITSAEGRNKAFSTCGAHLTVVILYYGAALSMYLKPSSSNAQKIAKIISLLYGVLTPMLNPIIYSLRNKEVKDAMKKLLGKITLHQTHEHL
Description: (§2) In order to confirm the binding site of the olfactory receptor OR2K2 protein that binds to azelaic acid, among amino acids, Y120, which is a tyrosine (Y) residue, E159, which is a glutamate (E) residue, and D270, which is an aspartate (D) residue, were predicted through in-silico modeling, and the corresponding position of the predicted amino acid residue was subjected to site-directed mutagenesis to obtain a mutant. For negative controls, Y120A, E159A, and D270A mutants in which all three amino acid residues were replaced with alanine were used. For positive controls, Y120F, E159D, and D270E mutants, including Y120F replaced with phenylalanine (F) for Y120, E159D replaced with aspartate for E159, and D270E replaced with glutamate for D270, were used.
(§3) The cDNA clone including the sequence of each OR2K2 mutant for measuring the binding affinity of azelaic acid was transfected into Hana3A cells, and a luciferase assay was performed. […] This is deemed to be because azelaic acid binds to OR2K2 by reacting the E159 and D270 moieties of OR2K2 with both carboxyl groups of azelaic acid.

OR2K2 [3] = assay: as above; format: cell-based, human; conditions: OR2K2 with both D270 and E159 mutated, Hana3A cells
Description: as §2, §3

3T3-L1 adipocytes [4] = assay: MTT assay, cytotoxicity of azelaic acid; format: cell-based, mouse; conditions: azelaic acid up to 500 μM, 24 hours
Method: In order to evaluate cytotoxicity of azelaic acid, MTT assay was performed.
The MTT assay is a test method using an ability of mitochondria reducing MTT tetrazolium, a yellow water-soluble substrate, to a blue purple water-insoluble MTT formazane […]. An MTT reagent was prepared by diluting C18H16BrN5S (Thiazoly Blue Tetrazolium Bromide) in phosphate buffered saline (PBS) at a concentration of 2 to 5 mg/ml.
First, after the 3T3-L1 adipocytes (4×10^5 cells/ml) were seeded in a 96-well plate and cultured at 37° C. under 5% CO2 conditions for 24 hours, the cultured 3T3-L1 adipocytes were treated with azelaic acid in a concentration range of 0 to 500 μM and cultured for 24 hours. After 100 μL of the MTT reagent was added to each test sample at a concentration of 4 mg/mL and cultured at 37° C. under 5% CO2 conditions for 4 hours, 100 μL of dimethyl sulfoxide (DMSO) was added thereto, and absorbance was measured at 540 nm. An absorbance value is to quantify an apoptotic effect due to toxicity using the principle that absorbance is in proportion to the number of living cells.

3T3-L1 adipocytes [5] = assay: Intracellular triglyceride concentration (TG assay kit) in 3T3-L1 adipocytes; format: cell-based, mouse
Method: as §1

C57BL/6 mice = assay: Subcutaneous injection in high-fat diet fed male C57BL/6 mice; format: in vivo, mouse; conditions: high-fat diet male C57BL/6 mice, 50 mg/kg subcutaneously, 3.5 weeks
Method: After 4 weeks of high-fat diet feeding in male C57BL/6 mice (7-8 per group), 50 mg/kg of azelaic acid was administered subcutaneously for 3.5 weeks, and Saxenda, which is used as an anti-obesity drug, was administered as a positive control.

normal mice = assay: Energy metabolism by indirect calorimetry in normal mice; format: in vivo, mouse; conditions: 50 mg/kg oral, 6 weeks
Description: Relative metabolic rates were confirmed by measuring consumption amount of O2 and production amounts of CO2 of an azelaic acid administration group and a control group using indirect calorimetry.

protein kinase A (PKA) = assay: PKA kinase activity in 3T3-L1 adipocytes; format: cell-based, mouse; conditions: azelaic acid 50 μM, 2 hours
Description: A representative protein regulating protein activities associated with signal transduction depending on a change in concentration of intracellular cAMP in the tissue cells is protein kinase A (PKA). Under general conditions, since an enzyme active site is blocked by a regulatory domain site of protein, a PKA activity is suppressed, but when the concentration of cAMP is increased, cAMP is bound to a regulatory site of PKA to expose an active site, such that the PKA activity is increased. In the present experiment, a change in PKA activity by azelaic acid was measured. The PKA activity was measured using an Enzo PKA kinase activity kit (Cat. #ADI-EKS-390A, Enzo Life Sciences, Korea).

hAMSC cells = assay: qPCR of anti-obesity gene in hAMSC cells, with OR2K2 knock-down; format: cell-based, human
Method: (§4) In-vitro equivalence confirmation: HepG2 cells, which are a human liver tissue cell line, and hAMSC cells, which are a human adipocyte line, were treated with azelaic acid and the anti-obesity gene was measured through a qPCR method.

3T3-L1 adipocytes [6] = assay: Glycerol release (triglyceride hydrolysis) from 3T3-L1 adipocytes; format: cell-based, mouse; conditions: 50 μM azelaic acid, 2 hours
Method: Further, in order to confirm whether or not azelaic acid has an effect of hydrolyzing triglycerides, a release amount of glycerol corresponding to a product of triglyceride hydrolysis was measured.

HepG2 cells = assay: qPCR of anti-obesity gene in HepG2 cells, with OR2K2 knock-down; format: cell-based, human
Method: as §4

## O=C(O)CCCCCCCC(=O)O [azelaic acid, nonanedioic acid]
3T3-L1 adipocytes [1]
  concentration of intracellular cholesterol: no significant change
OR2K2 [2]
  activity of azelaic acid (luciferase): statistically significantly decreased
OR2K2 [3]
  azelaic acid reaction (luciferase): statistically significantly reduced
3T3-L1 adipocytes [4]
  cytotoxicity (MTT assay): cytotoxicity was not observed; also recorded: toxicity was not exhibited
3T3-L1 adipocytes [5]; 3T3-L1 adipocytes, 50 μM azelaic acid, 2 hours
  concentration of intracellular triglycerides decreased as compared to a control: 61.5%
3T3-L1 adipocytes [5]; azelaic acid 25 or 50 μM
  concentration of triglycerides in the 3T3-L1 adipocytes: significantly and concentration-dependently decreased
C57BL/6 mice
  body weight: reduced body weight
  subcutaneous fat: reducing subcutaneous fat
Normal mice; vs control
  consumption amount of O2: no large difference
  fatty acid oxidation: increased
  respiratory quotient (RQ): decreased
  total energy expenditure (EE): no change
Normal mice; vs control group
  production amount of CO2: significantly increased
Protein kinase A (PKA)
  PKA activity increased as compared to a control: 113.8%
hAMSC cells; adipocytes (hAMSC) treated with azelaic acid
  expression of a triglyceride hydrolysis gene (qPCR): increased
hAMSC cells; human adipocyte line (hAMSC)
  effect on gene expression when the OR2K2 gene was knocked down: disappear
3T3-L1 adipocytes [6]
  glycerol (product of triglyceride hydrolysis) increased as compared to the control: 46.7%
HepG2 cells; human liver tissue cell line (HepG2)
  effect on gene expression when the OR2K2 gene was knocked down: disappear
HepG2 cells; liver tissue cells (HepG2) treated with azelaic acid
  fatty acid oxidation gene expression (qPCR): increased
